From ChEMBL document CHEMBL1145279, “Discovery and development of dimeric podocarpic acid leads as potent agonists of liver X receptor with HDL cholesterol raising activity in mice and hamsters” (Bioorg Med Chem Lett, 2005) come the findings set out here.

Assay [1] has as its target T1, Oxysterols receptor LXR-alpha (Homo sapiens, UniProt Q13133).
T1 sequence (Q13133 whole entry): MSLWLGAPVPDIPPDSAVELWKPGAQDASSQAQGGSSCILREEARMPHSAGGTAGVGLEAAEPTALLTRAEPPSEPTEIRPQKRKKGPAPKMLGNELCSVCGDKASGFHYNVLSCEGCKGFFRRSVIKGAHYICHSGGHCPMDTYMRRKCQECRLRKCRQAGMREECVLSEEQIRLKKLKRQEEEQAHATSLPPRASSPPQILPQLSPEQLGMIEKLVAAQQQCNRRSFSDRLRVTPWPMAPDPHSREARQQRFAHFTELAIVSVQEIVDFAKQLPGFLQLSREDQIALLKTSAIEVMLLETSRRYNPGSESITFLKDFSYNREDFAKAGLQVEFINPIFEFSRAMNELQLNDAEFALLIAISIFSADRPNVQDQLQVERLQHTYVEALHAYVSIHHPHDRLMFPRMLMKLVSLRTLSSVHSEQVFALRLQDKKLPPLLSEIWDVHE
As to the kind of experiment: Effective concentration for cofactor association with recombinant liver X receptor-alpha.

The target of assay [2] is T2, Oxysterols receptor LXR-beta (Homo sapiens, UniProt P55055).
T2 sequence (P55055 whole entry): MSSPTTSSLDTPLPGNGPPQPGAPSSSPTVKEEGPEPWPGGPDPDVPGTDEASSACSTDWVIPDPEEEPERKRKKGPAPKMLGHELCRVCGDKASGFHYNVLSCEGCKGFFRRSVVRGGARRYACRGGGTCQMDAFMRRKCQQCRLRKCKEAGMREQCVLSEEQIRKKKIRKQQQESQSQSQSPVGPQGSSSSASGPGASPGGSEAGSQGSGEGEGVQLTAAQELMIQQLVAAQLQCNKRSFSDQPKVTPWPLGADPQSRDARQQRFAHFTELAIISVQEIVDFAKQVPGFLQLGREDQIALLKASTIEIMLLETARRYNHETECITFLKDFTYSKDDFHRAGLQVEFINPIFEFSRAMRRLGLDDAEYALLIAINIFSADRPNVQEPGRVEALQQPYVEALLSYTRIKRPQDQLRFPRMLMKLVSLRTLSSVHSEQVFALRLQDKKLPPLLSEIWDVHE
Kind of assay: Effective concentration for cofactor association with recombinant liver X receptor-beta.

Assay [3] concerns the target T3, Oxysterols receptor LXR-alpha (Homo sapiens) (UniProt Q13133).
T3 sequence (whole entry): T1 sequence (Q13133 whole entry)
As to the kind of experiment: Percent inhibition of [3H2]-F3-methyl AA (1) binding to liver X receptor-alpha at 100 uM.

Assay [4] has as its target T4, Oxysterols receptor LXR-beta (Homo sapiens) (UniProt P55055).
T4 sequence (whole entry): T2 sequence (P55055 whole entry)
Kind of assay: Percent inhibition of [3H2]-F3-methyl AA (1) binding to liver X receptor-beta at 100 uM.

Assay [5] addresses T1, Oxysterols receptor LXR-alpha. As to the kind of experiment: Effective concentration against liver X receptor-alpha in HEK293 cell transactivation assay. In kind it is cell-based.
Assay [6] shares this target. Kind of assay: Displacement of [3H2]-F3-methyl AA (1) from liver X receptor-alpha in SPA assay.
Assay [7] shares this target. Kind of assay: Effective concentration for cofactor association with recombinant liver X receptor-alpha; Not active.
For assay [8], the target named is T2, Oxysterols receptor LXR-beta. Kind of assay: Effective concentration for cofactor association with recombinant liver X receptor-beta; Not active.
Assay [9] has as its target T1, Oxysterols receptor LXR-alpha. Kind of assay: Displacement of [3H2]-F3-methyl AA (1) from liver X receptor-alpha in SPA assay; Not active.
Assay [10] concerns the target T2, Oxysterols receptor LXR-beta. Kind of assay: Displacement of [3H2]-F3-methyl AA (1) from liver X receptor-beta in SPA assay; Not active.
Assay [11] shares this target. As to the kind of experiment: Displacement of [3H2]-F3-methyl AA (1) from liver X receptor-beta in SPA assay.
Assay [12] shares this target. Kind of assay: Effective concentration against liver X receptor-beta in HEK293 cell transactivation assay. Type of assay: cell-based.

As a reminder, the EC50 is the concentration that produces a half-maximal response. Broadly, the inhibition is the share of the control response that was lost under treatment. Read a low inhibition as little suppression. Take `CC(C)CC[C@@H](O)[C@@H](C)[C@H]1CC[C@H]2[C@@H]3CC=C4C[C@@H](O)CC[C@]4(C)[C@H]3CC[C@]12C` [22(R)-HYDROXYCHOLESTEROL]: the EC50 in [1] and in assay [2] was 15000 nM throughout. Also, the inhibition in assay [3] came out at 70%; in assay [4] it was 60%.

For orientation: IC50 means the concentration at which inhibition is half-maximal. A low value points to greater potency in that assay. For the molecule `CCCc1c(OCCCSc2ccc(CC(=O)O)cc2Cl)ccc2c(C(F)(F)F)noc12`, the EC50 came out at 35.4 nM in assay [1], 1790 nM in assay [5] and 1790 nM in [5] (hek293). In assay [6], this molecule came in with an IC50 of 35.4 nM.

On to `CC1OC(Oc2cc3c(cc2-c2cc4c(cc2O)[C@@]2(C)CCC[C@](C)(C(=O)O)[C@@H]2CC4)CC[C@H]2[C@@](C)(C(=O)O)CCC[C@]32C)C(O)C(O)C1O` (stereo partly specified), for which the EC50 result in [7] and in [8] was “Not Active” in each case. For the same molecule, the IC50 entry in assay [9] and in assay [10] was “Not Active” throughout.

On to `C[C@]1(C(=O)O)CCC[C@]2(C)c3cc(OP(=O)(O)Oc4ccc5c(c4)[C@@]4(C)CCC[C@](C)(C(=O)O)[C@@H]4CC5)ccc3CC[C@@H]12`, for which the EC50 entry in assay [7] and in assay [8] was “Not Active” throughout. The IC50 result in assay [9] and in [10] was “Not Active” in each case.

In the case of `CC(=O)Oc1ccc2c(c1)[C@@]1(C)CCCC(C)(C(=O)OC(=O)[C@@]3(C)CCC[C@]4(C)c5cc(OC(C)=O)ccc5CC[C@@H]34)[C@@H]1CC2` (stereo partly specified), the EC50 in assay [1] was 2 nM; in [12], 10 nM; in assay [5], 10 nM; in assay [2], 2 nM. Moreover, the IC50 in [11] and in [6] was 2 nM in each case.

Regarding `C[C@]1(C(=O)O)CCC[C@]2(C)c3cc(O)ccc3CC[C@@H]12` [PODOCARIC ACID], the EC50 in [1] and in assay [2] was above 50000 nM each time. The IC50 in assay [11] and in assay [6] was above 50000 nM in each case.
